Results reported in PubChem BioAssay AID588341 (The Scripps Research Institute Molecular Screening Center, 2011).
Calls of active or inactive are those of the source. No rule for the calls is given here.

Target: Beta-lactamase (reporter enzyme, TEM-1 type bla) (UniProt Q932Y6)
Test: beta-lactamase reporter inhibitor potency, dose response, artefact control for TLR9-MyD88 binding inhibitor project, BLA reporter cells, FRET fluorescence (AID 588341)
Settings: BLA reporter cell line, FRET fluorescence inhibition

Chain of Beta-lactamase (reporter enzyme, TEM-1 type bla) (Q932Y6 1-286): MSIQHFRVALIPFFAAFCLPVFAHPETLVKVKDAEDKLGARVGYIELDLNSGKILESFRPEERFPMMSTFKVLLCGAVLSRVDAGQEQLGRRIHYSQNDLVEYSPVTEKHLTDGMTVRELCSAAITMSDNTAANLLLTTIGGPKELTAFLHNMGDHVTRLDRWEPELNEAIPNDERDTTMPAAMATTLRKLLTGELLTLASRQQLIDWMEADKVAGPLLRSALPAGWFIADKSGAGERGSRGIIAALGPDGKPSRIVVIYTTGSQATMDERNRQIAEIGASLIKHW

IC50: inactive
SMILES: COc1cc(/C=C/C(=O)/C=C(O)/C=C/c2ccc(O)c(OC)c2)ccc1O
